Experimental data as given in patent US20210030039A1, “Prebiotic Compositions And Methods Of Production Thereof” (Optibiotix Limited, priority 2018, published 2021).

Assays:
[1] = Sensory profiling (QDA) by trained sensory panel, unstructured line scales 0-100; type: in vivo, human
From the text: A trained sensory panel at the Reading Sensory Science Centre (UK) were employed for sensory profiling of the samples. There were 10 panellists with between 1 and 9 years' experience. A QDA (quantitative descriptive analysis) profiling approach was taken. The panel used the same vocabulary that they had developed as a consensus for the tasting sessions including the term liquorice flavour which is characteristic note of steviol glycosides. The panel were retrained at the start of the sample set over 3 separate tasting sessions. This re-training focused on ensuring that they could reliably score sweetness relative to the new concentration of sucrose standard positions. Rating was carried out independently using unstructured lines scales (scaled 0-100), in duplicate, in isolated sensory booths. However, in order to improve discrimination for sweetness, the four sucrose samples were used as standards and the mean values for each of these samples, as agreed by the panel, are shown in Table 1 below. At the start of each scoring session the panel tasted the four reference samples in order of increasing strength to re-familiarise themselves with the positioning of these levels of sweetness on the line scale. The reference samples (10 mL) were served in transparent polystyrene cups (30 mL). They then palate cleansed with warm filtered tap water and low salt crackers (Carr's water crackers) before commencing the sample tasting session, and again between each sample scoring session. Samples, labelled with random 3 digit codes, were presented in a balanced presentation order in a monadic sequential manner with a maximum of 6 samples per day. Samples were served at 23-24° C. (room temperature) with air conditioning of the room set to 23° C.

[2] = reported; cited from earlier work

Compound	Mean Rating (0-100), sweetness standard ([1]; Standard 1, sucrose 2.0 % w/v)	Mean Rating (0-100), sweetness standard ([1]; Standard 2, sucrose 4.0 % w/v)	Mean Rating (0-100), sweetness standard ([1]; Standard 3, sucrose 6.0 % w/v)	Mean Rating (0-100), sweetness standard ([1]; Standard 4, sucrose 8.0 % w/v)	sweet potency relative to sucrose [2] [×]
OC[C@H]1O[C@@](CO)(O[C@H]2O[C@H](CO)[C@@H](O)[C@H](O)[C@H]2O)[C@@H](O)[C@@H]1O [Sucrose]	10	35	75	100	
C[C@H](CC[C@@H](O[C@@H]1O[C@H](CO[C@@H]2O[C@H](CO)[C@@H](O)[C@H](O)[C@H]2O)[C@@H](O)[C@H](O)[C@H]1O[C@@H]1O[C@H](CO)[C@@H](O)[C@H](O)[C@H]1O)C(C)(C)O)[C@H]1CC[C@@]2(C)[C@@H]3CC=C4[C@@H](CC[C@H](O[C@@H]5O[C@H](CO[C@@H]6O[C@H](CO)[C@@H](O)[C@H](O)[C@H]6O)[C@@H](O)[C@H](O)[C@H]5O)C4(C)C)[C@]3(C)[C@H](O)C[C@]12C [Mogroside V]					~400
